Reference: PMC3377608, “The IkappaB Kinase Family Phosphorylates the Parkinson’s Disease Kinase LRRK2 at Ser935 and Ser910 during Toll-Like Receptor Signaling” (PLoS ONE, 2012)

Biological target: T1, TAK1 (Homo sapiens, UniProt O43318)
T1 construct: gene MAP3K7
T1 sequence (O43318 1-303): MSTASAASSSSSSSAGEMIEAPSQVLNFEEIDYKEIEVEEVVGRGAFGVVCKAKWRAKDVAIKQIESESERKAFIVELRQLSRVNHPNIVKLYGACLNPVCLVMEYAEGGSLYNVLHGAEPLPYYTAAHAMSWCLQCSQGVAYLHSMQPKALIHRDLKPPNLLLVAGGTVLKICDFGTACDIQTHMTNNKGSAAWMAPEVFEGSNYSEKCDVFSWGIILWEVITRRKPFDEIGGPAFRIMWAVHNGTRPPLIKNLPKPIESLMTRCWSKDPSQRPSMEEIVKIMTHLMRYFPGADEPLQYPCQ
T1 sequence (Q15750 437-504 partner): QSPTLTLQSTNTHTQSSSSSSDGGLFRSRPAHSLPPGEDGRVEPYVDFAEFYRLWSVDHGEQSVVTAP
Test: in vitro kinase inhibition (IC50); selectivity profiled by KiNativ, Ambit and radioactive filter binding panels
Assay type: biochemical

For CCN1CCN(Cc2ccc(NC(=O)c3ccc(C)c(Oc4ccnc5[nH]ccc45)c3)cc2C(F)(F)F)CC1 [NG25], the IC50 was 4 nM.
